Like-named read-outs stand apart in the source and are kept apart here. One block for each compound: values may come before it.
What was measured:
[1] = system: extracts of bovine small intestine; type: in vitro ADME; settings: Korean native cattle, 24 h
Experimental: The small intestine (40 m) of Korean native cattle (record number: KOR005078680400), slaughtered in Bucheon livestock products market of National Agricultural Cooperative Federation, was purchased. After slicing the small intestine to around 1 m, 20 mM sodium phosphate buffer (pH 7.4, 5 mL) was added in the sliced small intestine. Thereafter, while holding each ends of the small intestine, the small intestine was repeatedly waggled to help most of enzymes in the small intestine to be dissolved by the sodium phosphate buffer. […]
(§1) In order to remove protein in the sample which the reaction was over, perchloric acid (0.5%) was added therein and diluted 10-fold. Thereafter, the N-acetyl-L-methionine and L-methionine existing in the supernatant, which is separated by centrifugation at 14,000 for 10 minutes, were quantitatively analyzed (HPLC). Conversion rate (%) was calculated by comparing the molar concentrations (mM) between the N-acetyl-L-methionine prior to the reaction and the L-methionine after the reaction, in terms of the percentage (%) (the molecular weight of the N-acetyl-L-methionine: […]; and the molecular weight of the L-methionine: […]). […]

[2] = Milk production and composition on feeding N-acetyl-L-methionine; type: in vivo, dairy cows
Experimental: Based on the in vitro evaluation, the N-acetyl-L-methionine, for which high digestive degradation rate in the small intestine and bypass rate in the rumen had been observed, was subjected to verify its efficiency through a substantial evaluation with dairy cows. In order for this, the cows were divided into two separated groups, and the change in milk composition depending on presence or absence of the N-acetyl-L-methionine was analyzed during the evaluation. For this, eight dairy cows were divided into two groups so that each group consists of four cows, respectively. Additionally, the N-acetyl-L-methionine was added to the feed composition (Table 12) which are fed by the four cows in one group (30 g of N-acetyl-L-methionine by each cow per a day), and it was carried out for 84 days. • Group 1: Non-addition of N-acetyl-L-methionine • Group 2: Addition of N-acetyl-L-methionine

[3] = Weight gain effect on feeding N-acetyl-L-methionine; type: in vivo, beef steers
From the text: The weight gain effect of beef steers was verified through feeding N-acetyl-L-methionine. For the verification, 24 beef steers were divided into two groups so that each group consisted of 12 beef steers. […] In the group with the addition of N-acetyl-L-methionine, each beef steer was fed with the N-acetyl-L-methionine (30 g) per a day.

ruminal microflora = settings: male, Holstein, cattle, 2 mg/mL
Experimental: One Holstein steer (weighing around 630 kg to 650 kg) equipped with ruminal cannula was provided for an experimental purpose, and the Holstein steer was bred by feeding the commercial feed (Milkgen™, CJ CheilJedang) and rice straws twice a day (7:30 a.m., 3:[…].).
The collection of ruminal fluid was carried out at 10 a.m. on the experimental day. Contents in the rumen were removed through a cannula, and gastric fluid was extracted with gauze by squeezing the same. Thereafter, the extracted gastric fluid was placed in a vacuum flask, and bubbled with CO2. The vacuum flak containing the gastric fluid was then carried to a laboratory while blocking a penetration of oxygen. It took less than an hour to carry the ruminal fluid to the laboratory.
The ruminal fluid carried to the laboratory was filtered with two layers of gauze, and then it was used as anaerobic culture medium by mixing the same with a biomimetic solution of McDougall's buffer (Troelsen and Donna, 1966), which is commonly used in the in vitro rumen bypass test, in a ratio of 1:3.
A feed used in the experiment was the commercial feed (Milkgen™), a feed substantially used for cattle breeding, and the feed was also used as a basal diet. Further, the experimental samples were prepared by mixing the basal diet with a test material. The test material used in this experiment was N-acetyl-L-methionine, and this was used as an experimental group 1. The experimental group 1 was compared with the control group 1 composed of only the basal diet without the test material, and also compared with the control group 2 composed of the test material, L-methionine. The culture was carried out with three replications for each experimental group.
The basal diet and test material were mixed in a ratio of 4:1 (basic diet (0.4 g), test material (0.1 g); but only 0.5 g of basic diet in control group 1). The culture initiated when the mixed test material (0.5 g) was added in a culture bottle (125 mL), and then mixed it with the prepared anaerobic culture medium (50 mL), and placed in 40° C. incubator upon sealing of the same.
O2 free CO2 was sprayed during the entire process including dilution of the ruminal fluid until the initiation of the culture, so that the ruminal fluid was not exposed to oxygen. Therefore, the anaerobic condition was maintained.
The culture was finally carried out for 48 hours, and sampling of the culture medium was carried out a total of four times (0 h, 24 h, 36 h, 48 h) upon the initiation of the culture. At each sampling, the sample placed in the 40° C. incubator was moved from the incubator and opened its lid. Thereafter, a supernatant was obtained by centrifuging the culture medium at 4000 rpm for 10 minutes, and then the amount of the test material present in the supernatant was measured.
The bypass rate (%) is represented as a residual amount (%) at time-points of 24 hours, 36 hours, and 48 hours, based on the amount of a test material at the time-point of 0 hour (100%).

extracts of bovine liver = assay: Digestive degradation by extracts of liver; type: in vitro ADME; settings: Korean native cattle, 24 h
Experimental: The liver of Korean native cattle (record number: KOR005078680400), slaughtered in Bucheon livestock products market of National Agricultural Cooperative Federation, was purchased. After mixing liver tissues (0.125 g) with 20 mM sodium phosphate buffer (pH 7.4, 1 mL), glass beads (Sigma G1145) were filled in about 1/10 of a tube (2 mL). The cell tissues were disrupted using a beadbeater (MP™ FastPrep) for three times with each 20 seconds, and the resultant was centrifuged at 4° C. at 14,000 rpm for 10 minutes to obtain supernatants.
To confirmed the enzymatic activity of the extracts obtained from small intestine and liver, acylase I (sigma A3010) extracted from pig kidney was used. […]
as §1

[4] = 30 g per cow per day in feed, 84 days
[5] = 30 g per steer per day, 90 days

L-methionine (mM) after the reaction [1]: 10.9 mM
Rate of rumen bypass (%), Average (ruminal microflora; 0 h): 100%
Rate of rumen bypass (%), replicate 1 (ruminal microflora; 0 h): 100%
Rate of rumen bypass (%), replicate 2 (ruminal microflora; 0 h): 100%
Rate of rumen bypass (%), replicate 3 (ruminal microflora; 0 h): 100%
Rate of rumen bypass (%), Average (ruminal microflora; 24 h): 89.1%
Rate of rumen bypass (%), replicate 1 (ruminal microflora; 24 h): 87.5%
Rate of rumen bypass (%), replicate 2 (ruminal microflora; 24 h): 90.5%
Rate of rumen bypass (%), replicate 3 (ruminal microflora; 24 h): 89.4%
Rate of rumen bypass (%), Average (ruminal microflora; 36 h): 76.2%
Rate of rumen bypass (%), replicate 1 (ruminal microflora; 36 h): 72.5%
Rate of rumen bypass (%), replicate 2 (ruminal microflora; 36 h): 80.1%
Rate of rumen bypass (%), replicate 3 (ruminal microflora; 36 h): 76.0%
Rate of rumen bypass (%), Average (ruminal microflora; 48 h): 55.4%
Rate of rumen bypass (%), replicate 1 (ruminal microflora; 48 h): 52.6%
Rate of rumen bypass (%), replicate 2 (ruminal microflora; 48 h): 57.2%
Rate of rumen bypass (%), replicate 3 (ruminal microflora; 48 h): 56.5%
Structure (SMILES): CSCC[C@H](NC(C)=O)C(=O)O [N-acetyl-L-methionine]
Amount of production, 3.5% FCM (Fat-corrected milk) [2, 4]: 43.4 kg/day
Amount of production, ECM (Energy-corrected milk) [2, 4]: 42.9 kg/day
Feed efficiency, 3.5% FCM yield/DMI [2, 4]: 1.72
Feed efficiency, ECM yield/DMI [2, 4]: 1.70
Feed efficiency, Milk production/Feed intake (Milk yield/DMI) [2, 4]: 1.66
Production of milk ingredients, Milk fat [2, 4]: 1.56 kg/day
Production of milk ingredients, Milk protein [2, 4]: 1.18 kg/day
Rate of milk ingredients, Milk fat [2, 4]: 3.70%
Rate of milk ingredients, Milk protein [2, 4]: 2.83%
3.5% FCM production, rate of increase (%) ([2]; vs non-addition group): 7.4%
ECM production, rate of increase (%) ([2]; vs non-addition group): 6.7%
Feed efficiency 3.5% FCM yield/DMI, rate of increase (%) ([2]; vs non-addition group): 9.6%
Feed efficiency ECM yield/DMI, rate of increase (%) ([2]; vs non-addition group): 8.3%
Feed efficiency Milk yield/DMI, rate of increase (%) ([2]; vs non-addition group): 3.1%
Production of milk ingredients, Milk fat, rate of increase (%) ([2]; vs non-addition group): 12.2%
Production of milk ingredients, Milk protein, rate of increase (%) ([2]; vs non-addition group): 3.5%
Rate of milk ingredients, Milk fat, rate of increase (%) ([2]; vs non-addition group): 10.8%
Rate of milk ingredients, Milk protein, rate of increase (%) ([2]; vs non-addition group): 1.8%
Average daily weight gain [3, 5]: 1.48 kg/day
Weight of beef steer, 3 months after feeding [3, 5]: 382.1 kg
additional weight gain ([3]; in comparison with one without the N-acetyl-L-methionine, 90 days): 16.5 kg
Weight gain, rate of increase (%) ([3]; vs non-addition group): 14.2%

Rate of rumen bypass (%), Average (ruminal microflora; 0 h): 100%
Rate of rumen bypass (%), replicate 1 (ruminal microflora; 0 h): 100%
Rate of rumen bypass (%), replicate 2 (ruminal microflora; 0 h): 100%
Rate of rumen bypass (%), replicate 3 (ruminal microflora; 0 h): 100%
Rate of rumen bypass (%), Average (ruminal microflora; 24 h): 58.8%
Rate of rumen bypass (%), replicate 1 (ruminal microflora; 24 h): 51.2%
Rate of rumen bypass (%), replicate 2 (ruminal microflora; 24 h): 62.6%
Rate of rumen bypass (%), replicate 3 (ruminal microflora; 24 h): 62.7%
Rate of rumen bypass (%), Average (ruminal microflora; 36 h): 36.0%
Rate of rumen bypass (%), replicate 1 (ruminal microflora; 36 h): 29.4%
Rate of rumen bypass (%), replicate 2 (ruminal microflora; 36 h): 42.3%
Rate of rumen bypass (%), replicate 3 (ruminal microflora; 36 h): 36.2%
Rate of rumen bypass (%), Average (ruminal microflora; 48 h): 1.5%
Rate of rumen bypass (%), replicate 1 (ruminal microflora; 48 h): 1.9%
Rate of rumen bypass (%), replicate 2 (ruminal microflora; 48 h): 1.5%
Rate of rumen bypass (%), replicate 3 (ruminal microflora; 48 h): 0.9%
Structure (SMILES): CSCC[C@H](N)C(=O)O [L-methionine]

L-methionine (mM) after the reaction (extracts of bovine liver): 6.36 mM
L-methionine (mM) after the reaction [1]: 5.82 mM
Structure (SMILES): CSCCC(NC(C)=O)C(=O)O (racemic) [N-acetyl-D,L-methionine, reference compound]
